{
  "source": "patent US8175815B2",
  "about": "“Method for assessing absorption properties of low solubility compounds” (F. Hoffmann-La Roche AG, priority 2006, dated 2012)",
  "key": {"[1]": {"test": "Excipient Effect: receiver UV AUC ratio in Double-Sink PAMPA with saturated donor (second embodiment)", "assay_type": "in vitro ADME", "conditions": "pH 5.0; receiver AUC with excipient / without excipient", "method": "The compounds are presented as DMSO solutions with a concentration of about 10 mM. They are further diluted in a universal aqueous buffer and adjusted to pH 5.0, 6.2, and 7.4 with 0.5 M NaOH. The background amount of DMSO in the aqueous solution is 0.5% v/v. Most of the compounds are insoluble in water, where they form saturated solutions with precipitation present. The calculated concentration of the compounds in the buffer is about 50 μM, but because of precipitation, the actual concentrations in the aqueous media must be lower than that, and are unknown. Saturated (non-filtered) solutions are transferred to the donor compartment of the PAMPA sandwich pre-loaded with magnetic stirrers. The filter of the PAMPA filter plate (the acceptor compartment of the PAMPA sandwich) is covered with GIT-lipid and filled with acceptor sink buffer (ASB). […]\nThus, it's not surprising that the absorption behavior for this compound at pH 5.0 is governed by the permeability and that the presence of the excipient in the donor compartment decreases the permeability of Butacaine. The second embodiment of the method of the invention allows detection of this behavior without separate measurements of the solubility and permeability constants, but by simple comparison of the compound concentrations (UV absorbance) in the receiver compartments."}, "[2]": {"conditions": "PAMPA, 30 min, 50 μM"}, "[3]": {"conditions": "PAMPA, pH 5"}, "[4]": {"test": "Double-Sink PAMPA permeability with and without excipients"}, "[5]": {"test": "equilibrium solubility-pH, direct-UV microtitre plate (μSOL Evolution) with and without excipients", "conditions": "for solubility at 18 h / pKa at 18 h: aqueous universal buffer (pION); for solubility at 18 h: 25 °C, kinetic from dmso stock; for pKa at 18 h: saturated drug suspension, pKa^APP ± SD"}},
  "data": [
    {"smiles": "CCCCN(CCCC)CCCOC(=O)c1ccc(N)cc1", "note": "[butacaine]", "values": [
      {"measurement": "excipient Effect", "setting": "[1]", "value": "< 1"},
      {"measurement": "PABL 0 mM NaTC", "setting": "[2]", "value": 713},
      {"measurement": "PABL 3 mM NaTC", "setting": "[2]", "value": 954},
      {"measurement": "PABL 15 mM NaTC", "setting": "[2]", "value": 13},
      {"measurement": "refined ABL thickness", "setting": "[2]", "value": "exceeding 75 μm"},
      {"measurement": "net flux effect due to 1% HP-β-CD", "setting": "[3]", "value": "loses at all pH values"},
      {"measurement": "MW*/MW", "setting": "[4]; 3 mM NaTC (second value)", "value": 2},
      {"measurement": "MW*/MW", "setting": "[4]; 15 mM NaTC (third value)", "value": 30000},
      {"measurement": "MW*/MW", "setting": "[4]; apparent/true molecular weight, 40 μm ABL assumed, 0 mM NaTC (first value)", "value": 4},
      {"measurement": "solubility at 18 h", "setting": "[5]; aqueous with cosolvent or surfactant or cyclodextrin", "value": 152, "unit": "µg/mL"},
      {"measurement": "solubility at 18 h", "setting": "[5]; pH 5, aqueous buffer", "value": "> 50", "unit": "µM"},
      {"measurement": "pKa at 18 h", "setting": "[5]; apparent ionization constant in saturated solution, excipient none", "value": "8.8 ± 0.2"},
      {"measurement": "pKa at 18 h", "setting": "[5]; apparent ionization constant, excipient 3 mM NaTC", "value": "8.9 ± 0.2"},
      {"measurement": "pKa at 18 h", "setting": "[5]; apparent ionization constant, excipient 15 mM NaTC", "value": "8.5 ± 0.1"},
      {"measurement": "pKa at 18 h", "setting": "[5]; apparent ionization constant, excipient 0.1M KCl", "value": "8.3 ± 0.3"},
      {"measurement": "pKa at 18 h", "setting": "[5]; apparent ionization constant, excipient 0.2M KCl", "value": "8.6 ± 0.1"},
      {"measurement": "pKa at 18 h", "setting": "[5]; apparent ionization constant, excipient 1% HP-b-CD", "value": "8.1 ± 0.1"},
      {"measurement": "pKa at 18 h", "setting": "[5]; apparent ionization constant, excipient 1% NMP", "value": "8.5 ± 0.1"},
      {"measurement": "pKa at 18 h", "setting": "[5]; apparent ionization constant, excipient 1% PEG400", "value": "8.5 ± 0.1"},
      {"measurement": "pKa at 18 h", "setting": "[5]; apparent ionization constant, excipient 1% PG", "value": "8.2 ± 0.1"},
      {"measurement": "pKa at 18 h", "setting": "[5]; apparent ionization constant, excipient 5% PEG400", "value": 8.5},
      {"measurement": "pKa at 18 h", "setting": "[5]; apparent ionization constant, excipient 5% PG", "value": "8.5 ± 0.2"},
      {"measurement": "pKa at 18 h", "setting": "[5]; apparent ionization constant, excipient […] HP-b-CD", "value": "8.5 ± 0.1"},
      {"measurement": "pKa at 18 h", "setting": "[5]; apparent ionization constant, excipient […] NMP", "value": "8.8 ± 0.1"},
      {"measurement": "pKa at 18 h", "setting": "[5]; apparent ionization constant, excipient […] PEG400", "value": 8.5},
      {"measurement": "pKa at 18 h", "setting": "[5]; apparent ionization constant, excipient […] PG", "value": "8.8 ± 0.1"},
      {"measurement": "So ± SD", "setting": "[5]; excipient 3 mM NaTC", "value": "3.1 ± 1.6", "unit": "µg/mL"},
      {"measurement": "So^APP ± SD", "setting": "[5]; excipient 3 mM NaTC", "value": "50 ± 10", "unit": "µg/mL"},
      {"measurement": "So ± SD", "setting": "[5]; excipient 15 mM NaTC", "value": "2.3 ± 0.4", "unit": "µg/mL"},
      {"measurement": "So^APP ± SD", "setting": "[5]; excipient 15 mM NaTC", "value": "96 ± 4", "unit": "µg/mL"},
      {"measurement": "So ± SD", "setting": "[5]; excipient 0.1M KCl", "value": "1.3 ± 0.8", "unit": "µg/mL"},
      {"measurement": "So^APP ± SD", "setting": "[5]; excipient 0.1M KCl", "value": "83 ± 17", "unit": "µg/mL"},
      {"measurement": "So ± SD", "setting": "[5]; excipient 0.2M KCl", "value": "2.5 ± 0.2", "unit": "µg/mL"},
      {"measurement": "So^APP ± SD", "setting": "[5]; excipient 0.2M KCl", "value": "78 ± 2", "unit": "µg/mL"},
      {"measurement": "So ± SD", "setting": "[5]; excipient 1% HP-b-CD", "value": "1.5 ± 0.4", "unit": "µg/mL"},
      {"measurement": "So^APP ± SD", "setting": "[5]; excipient 1% HP-b-CD", "value": "141 ± 7", "unit": "µg/mL"},
      {"measurement": "So ± SD", "setting": "[5]; excipient 1% NMP", "value": "1.9 ± 0.5", "unit": "µg/mL"},
      {"measurement": "So^APP ± SD", "setting": "[5]; excipient 1% NMP", "value": "71 ± 5", "unit": "µg/mL"},
      {"measurement": "So ± SD", "setting": "[5]; excipient 1% PEG400", "value": "2.8 ± 0.4", "unit": "µg/mL"},
      {"measurement": "So^APP ± SD", "setting": "[5]; excipient 1% PEG400", "value": "107 ± 2", "unit": "µg/mL"},
      {"measurement": "So ± SD", "setting": "[5]; excipient 1% PG", "value": "0.9 ± 0.2", "unit": "µg/mL"},
      {"measurement": "So^APP ± SD", "setting": "[5]; excipient 1% PG", "value": "69 ± 5", "unit": "µg/mL"},
      {"measurement": "So ± SD", "setting": "[5]; excipient 5% PEG400", "value": 2.8, "unit": "µg/mL"},
      {"measurement": "So^APP ± SD", "setting": "[5]; excipient 5% PEG400", "value": 107, "unit": "µg/mL"},
      {"measurement": "So ± SD", "setting": "[5]; excipient 5% PG", "value": "1.5 ± 0.5", "unit": "µg/mL"},
      {"measurement": "So^APP ± SD", "setting": "[5]; excipient 5% PG", "value": "66 ± 9", "unit": "µg/mL"},
      {"measurement": "So ± SD", "setting": "[5]; excipient […] HP-b-CD", "value": "2.0 ± 0.3", "unit": "µg/mL"},
      {"measurement": "So^APP ± SD", "setting": "[5]; excipient […] HP-b-CD", "value": "79 ± 4", "unit": "µg/mL"},
      {"measurement": "So ± SD", "setting": "[5]; excipient […] NMP", "value": "2.1 ± 0.5", "unit": "µg/mL"},
      {"measurement": "So^APP ± SD", "setting": "[5]; excipient […] NMP", "value": "47 ± 3", "unit": "µg/mL"},
      {"measurement": "So ± SD", "setting": "[5]; excipient […] PEG400", "value": 3.6, "unit": "µg/mL"},
      {"measurement": "So^APP ± SD", "setting": "[5]; excipient […] PEG400", "value": 151, "unit": "µg/mL"},
      {"measurement": "So ± SD", "setting": "[5]; excipient […] PG", "value": "2.3 ± 0.5", "unit": "µg/mL"},
      {"measurement": "So^APP ± SD", "setting": "[5]; excipient […] PG", "value": "51 ± 4", "unit": "µg/mL"},
      {"measurement": "So ± SD", "setting": "[5]; excipient none", "value": "1.9 ± 0.7", "unit": "µg/mL"},
      {"measurement": "So^APP ± SD", "setting": "[5]; excipient none", "value": "40 ± 6", "unit": "µg/mL"},
      {"measurement": "So^APP ± SD", "setting": "[5]; excipient none, listed as Butacaine", "value": 40, "unit": "µg/mL"},
      {"measurement": "salt limit (sdiff 3-4 approximation)", "setting": "[5]; three orders of magnitude above excipient-free intrinsic solubility", "value": 39.8, "unit": "mg/mL"}
    ]}
  ]
}
